The text below walks through data of patent US12083101B2, “Biaryl derivatives as YAP/TAZ-TEAD protein-protein interaction inhibitors” (Novartis AG, priority 2020, dated 2024).

Assay [1] concerns the target Avi-humanTEAD4 217-434 / Cy5 labeled humanYAP 60-100 (Homo sapiens (Human), UniProt Q15561). Description: TR-FRET YAP-TEAD4 in-vitro biochemical assay. It counts as binding. As to conditions: 1 nM Avi-humanTEAD4 217-434, 20 nM Cy5-humanYAP 60-100, 1 h room temperature. (In general: Time-resolved FRET reads energy transfer from a long-lived donor to a nearby acceptor.)
Assay [2] has as its system NCI-H2052 Tet-On shYAP_2371 pLenti6 MCAT_Luc cells (YAP-dependent transcription). The assay is described as follows: YAP reporter gene activity assay (MCAT-luciferase), NCI-H2052. Conditions: Homo sapiens, NCI-H2052, 24 h, 24 hours incubation, BrightGlo luminescence. The assay is classed as cell-based. As for the experimental part:
(§1) This cell line was also transduced with a Tet-pLKO-puro-based construct mediating tetracycline-inducible expression of a short-hairpin directed against the 3′UTR of the YAP1 mRNA (5′-[…]-3′).
(§2) Stock solutions of compounds were prepared at a concentration of 10 mM in DMSO and stored at 4° C. Where necessary to afford a full dose-response curve, the stock solutions were pre-diluted in DMSO to 1'000-fold the desired reduced start concentration. On the day after cell seeding, eleven 2-fold serial dilutions of each compound were dispensed directly into the cell assay plates using a HP 300D non-contact Digital Dispenser (TECAN, Mannedorf, Switzerland). The final concentration of DMSO was normalized to 0.1% in all wells.
The ability of compounds to inhibit YAP-dependent transcription was assessed in NCI-H2052 Tet-On shYAP_2371 pLenti6 MCAT_Luc cells, while specificity (lack of unspecific inhibition of luciferase expression of activity) was assessed in MKN-45/Ubc-luc cells. […] Following incubation for 24 hours at 37° C., compound-mediated modulation of reporter-gene activity was quantified 5 min after addition of 20 μl BrightGlo (Promega, Cat #E2620), by measuring luminescence intensity on a multi-mode plate-reader (TECAN, Männedorf, Switzerland, Integration time 100 ms). For data analysis, the assay background value determined in wells containing medium, but no cells, was subtracted from all data points. Dose-dependent compound effects were expressed as % of vehicle-treated control (luminescence signal produced by cells receiving DMSO only) and IC50s calculated using a four-parametric fit model.
On the technique in general: A reporter such as luciferase makes a cellular process visible.

Assay [3] has as its system NCI-H2052 Tet-On shYAP_2371 pLenti6 MCAT_Luc cells. The assay is described as follows: Proliferation assay (resazurin), NCI-H2052. The assay is classed as cell-based. As to conditions: Homo sapiens, NCI-H2052, 72 h, 72 hours incubation. How it is done:
as §1, §2
(§3) The functional effect of compounds on cell proliferation was assessed using NCI-H2052 Tet-On shYAP_2371 pLenti6 MCAT_Luc and MKN-45/Ubc-luc cells by quantifying the reducing capacity of live cells using the redox indicator dye resazurin. […] For data analysis, the assay background value determined in wells containing medium, but no cells, was subtracted from all data points. […] The effect of a particular test compound concentration on cell proliferation/viability was expressed as percentage of day 0-corrected fluorescence reading obtained for cells treated with vehicle only (DMSO, final concentration 0.1%), which was set as 100%, whereas the fluorescence reading for wells containing medium only, but no cells, was set as −100%. Compound concentrations leading to half-maximal growth inhibition (GI50) were determined using standard four parameter curve fitting.
Background: Alamar Blue is a resazurin reagent that responds to reducing activity.

Assay [4] relates to MKN-45/Ubc-luc cells. Description: Proliferation assay (resazurin), MKN-45. It counts as cell-based. Conditions: Homo sapiens, 72 hours incubation. How it is done:
As a specificity control, MKN-45 cells were stably transduced with a Ubc-Luc reporter construct, in which constitutive expression of firefly luciferase is driven by the promoter of the ubiquitin C housekeeping gene.
as §2, §3

For assay [5], the system named is MKN-45/Ubc-luc cells. The assay is described as follows: Reporter gene specificity control (Ubc-luciferase), MKN-45. Conditions: Homo sapiens, MKN-45, 24 h, read-out: Reporter gene assay MKN-45 IC50 [μM], MKN-45/Ubc-luc cells (YAP deleted, specificity control), 24 hours incubation.

A value given as a limit tells only on which side of the number the result lay.

Avi-humanTEAD4 217-434 / Cy5 labeled humanYAP 60-100, sequence (Q15561 217-434): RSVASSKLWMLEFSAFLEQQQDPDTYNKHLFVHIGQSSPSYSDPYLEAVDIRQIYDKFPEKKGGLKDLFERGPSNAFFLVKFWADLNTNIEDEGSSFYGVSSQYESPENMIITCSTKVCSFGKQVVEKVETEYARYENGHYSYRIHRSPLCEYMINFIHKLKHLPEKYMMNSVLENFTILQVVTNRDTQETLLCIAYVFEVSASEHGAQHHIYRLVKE

For `COc1ccc(C(N)=O)c(-c2c(Cl)c(F)cc3c2[C@H](C)[C@@](CN[C@H]2CC[C@](C)(O)CC2)(c2cccnc2)O3)c1F` (atropisomer, axis not shown) [Example 127, 2-((2S,3S,4S)-5-Chloro-6-fluoro-2-((((trans)-4-hydroxy-4-methylcyclohexyl)amino)methyl)-3-methyl-2-(pyridin-3-yl)-2,3-dihydrobenzofuran-4-yl)-3-fluoro-4-methoxybenzamide], the values for the IC50 in assay [1], in assay [2] and in assay [5] were 6 nM, 65 nM and greater than 10 µM, respectively. For the same compound, the GI50 (usually the concentration at which growth is held to half of that of the control) in assay [3] was 141 nM; in assay [4], greater than 10000 nM.

For `C[C@H](O)COc1ccc(C(N)=O)c(-c2c(Cl)c(F)cc3c2[C@H](C)[C@@](CN[C@H]2CC[C@](C)(O)CC2)(c2ccccc2)O3)c1F` (atropisomer, axis not shown) [Example 114a, 2-((2S,3S,4S)-5-chloro-6-fluoro-2-((((trans)-4-hydroxy-4-methylcyclohexyl)amino)methyl)-3-methyl-2-phenyl-2,3-dihydrobenzofuran-4-yl)-3-fluoro-4-((S)-2-hydroxypropoxy)benzamide], the values for the IC50 in assay [1], in assay [2] and in assay [5] were 2 nM, 18 nM and greater than 10 µM, respectively. The 50% growth inhibitory concentration (GI50) was 23 nM in assay [3] and greater than 10000 nM in assay [4].

For `NC(=O)c1ccc(OCCO)c(F)c1-c1c(Cl)c(F)cc2c1C[C@](c1ccccc1)([C@@H]1CCCN1)N2` (atropisomer, axis not shown) [Example 170, 2-((2S,4S)-5-Chloro-6-fluoro-2-phenyl-2-((S)-pyrrolidin-2-yl)indolin-4-yl)-3-fluoro-4-(2-hydroxyethoxy)benzamide], the IC50 in assay [1] is 1 nM; in assay [2] it was 12 nM; in assay [5] it was greater than 8 µM. In addition, the results for the GI50 in assay [3] and in assay [4] were 23 nM and greater than 8000 nM, respectively.

For `CNC(=O)c1ccc(OC[C@H](C)O)c(F)c1-c1c(Cl)c(F)cc2c1[C@H](C)[C@](c1ccccc1)(C1CCN1)O2` (stereo partly drawn) [Example 150, 2-((2S,3S,4S)-2-(Azetidin-2-yl)-5-chloro-6-fluoro-3-methyl-2-phenyl-2,3-dihydrobenzofuran-4-yl)-3-fluoro-4-((S)-2-hydroxypropoxy)-N-methylbenzamide], the IC50 was 4 nM in assay [1], 74 nM in assay [2] and greater than 10 µM in assay [5]. The GI50 in assay [3] is 85 nM; in assay [4], greater than 10000 nM.

Consider `COc1ccc(C(N)=O)c(-c2c(Cl)c(F)cc3c2C[C@@](CN)(c2ccccc2)O3)c1F` (atropisomer, axis not shown) [Example 33, 2-((2S,4S)-2-(aminomethyl)-5-chloro-6-fluoro-2-phenyl-2,3-dihydrobenzofuran-4-yl)-3-fluoro-4-methoxybenzamide], for which the figures for the IC50 in assay [1], in assay [2] and in assay [5] were 3 nM, 161 nM and greater than 10 µM, respectively. Moreover, the GI50 in assay [3] was 161 nM; in assay [4] it was greater than 10000 nM.

Take `CNC[C@]1(c2ccccc2)Oc2cc(F)c(Cl)c(-c3c(C(=O)NC)ccc(OC[C@H](C)O)c3F)c2[C@@H]1C` (atropisomer, axis not shown) [Example 122, 2-((2S,3S,4S)-5-Chloro-6-fluoro-3-methyl-2-((methylamino)methyl)-2-phenyl-2,3-dihydrobenzofuran-4-yl)-3-fluoro-4-((S)-2-hydroxypropoxy)-N-methylbenzamide]: the IC50 is 6 nM in assay [1], 85 nM in assay [2] and greater than 10 µM in assay [5]. For the same compound, the GI50 in assay [3] was 59 nM; in assay [4], greater than 10000 nM.

As for `C[C@H]1c2c(cc(F)c(Cl)c2-c2c(C(N)=O)cnc(OCCO)c2F)O[C@]1(CN[C@H]1CC[C@](C)(O)CC1)c1ccccc1` (atropisomer, axis not shown) [Example 119], the IC50 was 2 nM in assay [1], 22 nM in assay [2] and greater than 10 µM in assay [5]. The GI50 is 28 nM in assay [3] and greater than 10000 nM in assay [4].
